Experimental data published in ChEMBL document CHEMBL1201862, “PubChem BioAssay data set” (2004).
Activity calls are given as the source filed them.

Key:
[1] = biological target: Nucleotide-binding oligomerization domain-containing protein 2 (Homo sapiens, UniProt Q9HC29); assay: inhibition of NOD2-driven NF-kB reporter – cell-based, luminescence, uHTS, HEK293 (AID 1566); assay type: functional
[2] = test system: HEK293; assay: cells; assay type: functional, cell-based; details: Homo sapiens
[3] = biological target: T1, Calpain-2 catalytic subunit (Sus scrofa, UniProt P43367); assay: m-calpain protease blockers, concentration series – biochemical, fluorogenic peptide substrate, dose response (AID 1420); assay type: functional
T1 sequence (P43367 whole entry): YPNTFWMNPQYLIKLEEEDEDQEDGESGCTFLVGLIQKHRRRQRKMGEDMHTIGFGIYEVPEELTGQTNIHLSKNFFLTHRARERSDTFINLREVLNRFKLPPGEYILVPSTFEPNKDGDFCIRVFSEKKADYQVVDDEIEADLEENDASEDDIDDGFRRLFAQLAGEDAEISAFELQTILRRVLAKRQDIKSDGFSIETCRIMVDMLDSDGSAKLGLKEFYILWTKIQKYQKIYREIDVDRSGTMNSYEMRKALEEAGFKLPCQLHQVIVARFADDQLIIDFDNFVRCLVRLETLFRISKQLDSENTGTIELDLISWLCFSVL

[4] = test system: HEK293; assay: NOD2 signaling inhibitors in MDP-stimulated cells, cell-based, uHTS, luminescence (AID 2001); assay type: functional; details: Homo sapiens
[5] = test system: HEK293; assay: inhibition of NOD1-driven NF-kB reporter – cell-based, luminescence, uHTS, primary screen (AID 1578); assay type: functional; details: Homo sapiens
[6] = test system: HEK293; assay: cells; assay type: functional, cell-based; details: Homo sapiens; remark: listed apart in the source
[7] = test system: HEK293; assay: cells; assay type: functional, cell-based; details: Homo sapiens; remark: listed apart in the source
[8] = biological target: Cytochrome P450 2C9 (Homo sapiens, UniProt P11712)
[9] = biological target: T2, Cytochrome P450 1A2 (Homo sapiens, UniProt P05177);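 also: PubChem cytochrome P450 panel assay, CYP1A2 panel member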
T2 sequence (P05177 whole entry): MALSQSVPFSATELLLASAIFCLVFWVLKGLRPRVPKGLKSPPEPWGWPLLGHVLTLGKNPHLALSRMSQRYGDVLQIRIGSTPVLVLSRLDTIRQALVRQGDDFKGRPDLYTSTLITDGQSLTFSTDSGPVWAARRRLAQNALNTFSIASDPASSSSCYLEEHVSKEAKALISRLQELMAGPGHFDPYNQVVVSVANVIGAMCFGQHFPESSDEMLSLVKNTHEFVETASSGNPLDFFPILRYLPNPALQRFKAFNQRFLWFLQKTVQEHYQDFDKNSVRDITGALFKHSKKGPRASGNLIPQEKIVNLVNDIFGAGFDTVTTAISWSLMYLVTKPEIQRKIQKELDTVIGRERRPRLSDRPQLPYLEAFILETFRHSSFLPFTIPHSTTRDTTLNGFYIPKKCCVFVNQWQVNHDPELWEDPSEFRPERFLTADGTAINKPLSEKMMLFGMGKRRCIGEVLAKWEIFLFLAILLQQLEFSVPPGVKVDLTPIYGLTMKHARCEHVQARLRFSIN

[10] = biological target: DNA damage-inducible transcript 3 protein (Mus musculus, UniProt P35639); assay type: functional, Cricetulus griseus
[11] = biological target: T3, X-box-binding protein 1 (Homo sapiens, UniProt P17861); assay type: functional, Cricetulus griseus;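 also: confirmatory dose-response counter-screen serving a CHOP assay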
T3 sequence (P17861 whole entry): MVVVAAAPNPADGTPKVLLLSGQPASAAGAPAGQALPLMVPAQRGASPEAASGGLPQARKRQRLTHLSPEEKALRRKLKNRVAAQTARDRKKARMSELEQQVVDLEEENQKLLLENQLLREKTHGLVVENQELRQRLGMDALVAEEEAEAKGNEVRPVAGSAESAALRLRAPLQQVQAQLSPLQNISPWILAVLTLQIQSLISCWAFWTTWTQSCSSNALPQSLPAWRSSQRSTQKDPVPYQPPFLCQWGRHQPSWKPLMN

[12] = biological target: T4, Corticotropin-releasing factor receptor 2/Corticotropin-releasing factor-binding protein (Homo sapiens, UniProt P24387+Q13324); assay: Dose Response confirmation of uHTS hits for small molecule antagonists of the CRF-binding protein and CRF-R2 receptor complex.; assay type: functional; details: read-out: IC50_Mean
T4 sequence (Q13324 whole entry): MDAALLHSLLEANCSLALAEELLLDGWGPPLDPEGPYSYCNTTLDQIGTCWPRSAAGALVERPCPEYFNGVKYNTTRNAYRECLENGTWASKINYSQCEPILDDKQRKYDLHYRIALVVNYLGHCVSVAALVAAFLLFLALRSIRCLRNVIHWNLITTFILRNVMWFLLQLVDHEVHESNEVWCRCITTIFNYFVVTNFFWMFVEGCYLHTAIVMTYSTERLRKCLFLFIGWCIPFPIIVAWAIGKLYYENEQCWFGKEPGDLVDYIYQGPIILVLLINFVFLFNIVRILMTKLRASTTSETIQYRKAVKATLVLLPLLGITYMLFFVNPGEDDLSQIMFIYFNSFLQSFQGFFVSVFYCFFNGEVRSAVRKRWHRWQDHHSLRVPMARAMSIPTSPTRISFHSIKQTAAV
T4 sequence (P24387 whole entry): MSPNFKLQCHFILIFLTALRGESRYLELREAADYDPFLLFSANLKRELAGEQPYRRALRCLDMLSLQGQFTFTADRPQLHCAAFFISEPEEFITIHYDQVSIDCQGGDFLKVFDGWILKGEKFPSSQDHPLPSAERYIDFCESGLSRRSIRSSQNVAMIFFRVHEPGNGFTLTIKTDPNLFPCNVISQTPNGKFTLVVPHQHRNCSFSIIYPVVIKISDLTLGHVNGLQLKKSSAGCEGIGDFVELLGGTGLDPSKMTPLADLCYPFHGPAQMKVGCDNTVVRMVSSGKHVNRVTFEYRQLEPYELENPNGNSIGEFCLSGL

[13] = biological target: T4, Corticotropin-releasing factor receptor 2/Corticotropin-releasing factor-binding protein; assay: activators of CRF receptor 2 with binding protein – uHTS hits, confirmation (AID 602473); assay type: functional; details: read-out: EC50_Mean
[14] = biological target: T5, Polyadenylate-binding protein 1 (Homo sapiens, UniProt P11940); assay: MLLE domain peptide-binding blockers, IC50 – biochemical, fluorescence polarization, FITC-PAM2 peptide, dose response (AID 602259); assay type: functional; details: read-out: IC50_Mean
[15] = biological target: T5, Polyadenylate-binding protein 1; assay: MLLE binding blockers, Cy5 peptide tracer – biochemical, fluorescence polarization, Cy5-PAM2 peptide, secondary, miRNA deadenylation inhibitor project, dose response (AID 602260); assay type: functional; details: read-out: IC50_Mean
[16] = biological target: T6, Protein Rev (Human immunodeficiency virus type 1 group M subtype B (isolate HXB2)(HIV-1), UniProt P04618); assay: blockers of HIV Rev/RRE RNA complex – biochemical, fluorescence polarization, HIV-1, dose response (AID 434976); parameters: species or system Human immunodeficiency virus 1
T6 sequence (P04618 whole entry): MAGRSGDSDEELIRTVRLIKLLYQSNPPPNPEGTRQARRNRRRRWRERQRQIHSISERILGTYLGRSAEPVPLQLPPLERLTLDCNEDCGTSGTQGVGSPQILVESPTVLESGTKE

[17] = biological target: T7, Female germline-specific tumor suppressor gld-1 (Caenorhabditis elegans, UniProt Q17339); assay: blockers of GLD-1/TGE RNA complex formation – biochemical, fluorescence polarization, C. elegans, dose response (AID 2802);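 also: fluorescence polarization of labeled TGE RNA bound by purified gld-1 protein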
T7 sequence (Q17339 whole entry): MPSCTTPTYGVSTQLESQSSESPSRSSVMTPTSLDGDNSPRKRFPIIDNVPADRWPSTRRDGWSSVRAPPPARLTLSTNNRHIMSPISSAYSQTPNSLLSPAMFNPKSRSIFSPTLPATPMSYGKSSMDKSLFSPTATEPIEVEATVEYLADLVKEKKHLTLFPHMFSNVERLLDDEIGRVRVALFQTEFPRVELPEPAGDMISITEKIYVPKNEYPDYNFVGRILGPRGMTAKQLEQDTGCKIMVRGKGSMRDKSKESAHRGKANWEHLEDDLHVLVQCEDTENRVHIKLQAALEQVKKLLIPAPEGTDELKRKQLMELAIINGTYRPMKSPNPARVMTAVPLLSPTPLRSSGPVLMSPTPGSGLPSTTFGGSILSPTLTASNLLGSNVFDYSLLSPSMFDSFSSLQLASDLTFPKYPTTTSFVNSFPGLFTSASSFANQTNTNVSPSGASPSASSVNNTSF

[18] = biological target: T8, Kappa-type opioid receptor (Homo sapiens, UniProt P41145); assay type: functional
[19] = biological target: T8, Kappa-type opioid receptor; assay type: functional; remark: listed apart in the source
[20] = biological target: Heat shock protein HSP 90-alpha (Homo sapiens, UniProt P07900); assay type: functional, organism-based
[21] = biological target: Beta-galactosidase (Escherichia coli, UniProt Q8VNN2); assay type: functional
Chain of Beta-galactosidase (Q8VNN2 whole entry): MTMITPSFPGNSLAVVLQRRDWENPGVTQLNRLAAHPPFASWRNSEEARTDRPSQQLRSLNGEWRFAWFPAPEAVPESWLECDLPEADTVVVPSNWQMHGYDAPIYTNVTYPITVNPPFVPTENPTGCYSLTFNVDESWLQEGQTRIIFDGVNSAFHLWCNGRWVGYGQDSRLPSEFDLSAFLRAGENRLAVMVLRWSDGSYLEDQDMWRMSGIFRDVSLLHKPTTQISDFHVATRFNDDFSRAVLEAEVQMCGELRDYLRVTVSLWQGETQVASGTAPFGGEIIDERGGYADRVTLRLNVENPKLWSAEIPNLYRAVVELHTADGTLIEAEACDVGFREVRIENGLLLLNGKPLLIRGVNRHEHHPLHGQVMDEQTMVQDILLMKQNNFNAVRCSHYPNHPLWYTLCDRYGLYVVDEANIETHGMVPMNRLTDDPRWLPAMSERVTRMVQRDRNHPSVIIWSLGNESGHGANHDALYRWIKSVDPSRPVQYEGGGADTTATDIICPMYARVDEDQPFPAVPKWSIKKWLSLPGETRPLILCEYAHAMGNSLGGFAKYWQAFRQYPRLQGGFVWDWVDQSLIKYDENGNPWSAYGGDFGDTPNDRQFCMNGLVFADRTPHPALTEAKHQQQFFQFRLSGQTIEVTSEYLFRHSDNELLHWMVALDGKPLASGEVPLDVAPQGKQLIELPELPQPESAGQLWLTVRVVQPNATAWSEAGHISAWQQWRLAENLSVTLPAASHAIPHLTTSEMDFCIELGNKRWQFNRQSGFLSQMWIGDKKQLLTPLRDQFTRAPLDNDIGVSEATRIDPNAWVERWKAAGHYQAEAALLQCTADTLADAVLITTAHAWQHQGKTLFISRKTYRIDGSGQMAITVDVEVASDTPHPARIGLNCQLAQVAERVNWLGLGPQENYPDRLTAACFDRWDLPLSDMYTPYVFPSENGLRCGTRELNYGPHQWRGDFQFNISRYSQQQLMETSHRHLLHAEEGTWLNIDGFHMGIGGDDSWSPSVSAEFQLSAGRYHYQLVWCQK

T5 sequence (P11940 whole entry, the tested form may be a part): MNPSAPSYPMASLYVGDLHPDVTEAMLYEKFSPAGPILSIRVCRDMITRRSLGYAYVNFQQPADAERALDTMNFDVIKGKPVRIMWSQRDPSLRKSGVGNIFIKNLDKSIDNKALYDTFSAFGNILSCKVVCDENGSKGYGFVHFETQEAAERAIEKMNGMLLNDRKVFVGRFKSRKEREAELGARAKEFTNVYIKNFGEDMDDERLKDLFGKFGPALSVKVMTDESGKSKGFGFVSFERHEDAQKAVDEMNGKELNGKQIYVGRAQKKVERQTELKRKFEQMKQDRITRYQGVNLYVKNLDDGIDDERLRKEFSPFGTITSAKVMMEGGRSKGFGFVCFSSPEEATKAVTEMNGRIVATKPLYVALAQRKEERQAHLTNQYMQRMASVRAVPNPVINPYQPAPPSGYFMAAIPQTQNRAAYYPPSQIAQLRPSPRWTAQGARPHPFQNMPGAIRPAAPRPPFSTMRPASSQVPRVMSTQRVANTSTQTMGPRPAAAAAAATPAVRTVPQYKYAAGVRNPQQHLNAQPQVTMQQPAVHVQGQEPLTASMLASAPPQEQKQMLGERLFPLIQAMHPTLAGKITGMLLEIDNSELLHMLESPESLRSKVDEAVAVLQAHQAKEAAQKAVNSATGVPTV
T8 sequence (P41145 whole entry): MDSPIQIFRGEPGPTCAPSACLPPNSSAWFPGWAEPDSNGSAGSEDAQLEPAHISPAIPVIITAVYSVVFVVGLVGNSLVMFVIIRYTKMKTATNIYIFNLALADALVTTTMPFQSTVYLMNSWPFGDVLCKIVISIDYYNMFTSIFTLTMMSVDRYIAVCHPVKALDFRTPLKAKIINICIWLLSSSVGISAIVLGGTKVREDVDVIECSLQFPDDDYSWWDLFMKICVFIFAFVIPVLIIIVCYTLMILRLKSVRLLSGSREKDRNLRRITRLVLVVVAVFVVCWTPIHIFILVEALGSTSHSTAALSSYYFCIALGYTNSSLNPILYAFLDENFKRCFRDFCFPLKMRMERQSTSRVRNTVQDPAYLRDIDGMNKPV
Chain of Nucleotide-binding oligomerization domain-containing protein 2 (Q9HC29 whole entry, the tested form may be a part): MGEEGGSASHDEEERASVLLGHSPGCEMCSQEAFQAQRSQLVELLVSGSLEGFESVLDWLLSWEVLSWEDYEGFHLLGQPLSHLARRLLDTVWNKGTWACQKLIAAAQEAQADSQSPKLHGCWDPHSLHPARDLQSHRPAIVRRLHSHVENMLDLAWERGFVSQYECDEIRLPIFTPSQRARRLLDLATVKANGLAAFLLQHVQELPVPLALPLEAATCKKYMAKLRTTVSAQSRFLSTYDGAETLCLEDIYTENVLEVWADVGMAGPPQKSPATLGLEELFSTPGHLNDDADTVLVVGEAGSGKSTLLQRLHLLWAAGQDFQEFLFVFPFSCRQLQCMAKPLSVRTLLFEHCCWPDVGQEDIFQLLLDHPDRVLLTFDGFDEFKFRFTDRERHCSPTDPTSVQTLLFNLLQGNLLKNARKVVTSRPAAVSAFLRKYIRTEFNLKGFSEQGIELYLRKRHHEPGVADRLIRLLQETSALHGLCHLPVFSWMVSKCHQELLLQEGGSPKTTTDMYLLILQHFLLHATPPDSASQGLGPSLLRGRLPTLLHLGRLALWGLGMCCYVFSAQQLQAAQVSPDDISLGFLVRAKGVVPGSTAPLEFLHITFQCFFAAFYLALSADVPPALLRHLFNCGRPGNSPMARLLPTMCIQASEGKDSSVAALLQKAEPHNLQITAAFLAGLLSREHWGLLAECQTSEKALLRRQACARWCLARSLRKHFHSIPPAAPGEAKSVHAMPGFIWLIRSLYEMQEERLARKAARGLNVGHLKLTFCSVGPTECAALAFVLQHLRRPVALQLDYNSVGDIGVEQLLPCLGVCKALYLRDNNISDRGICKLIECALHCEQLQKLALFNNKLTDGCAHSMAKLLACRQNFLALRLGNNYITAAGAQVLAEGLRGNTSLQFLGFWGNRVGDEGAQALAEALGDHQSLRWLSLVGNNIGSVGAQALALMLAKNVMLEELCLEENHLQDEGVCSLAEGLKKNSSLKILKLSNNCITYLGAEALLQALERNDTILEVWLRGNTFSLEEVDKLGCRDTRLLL
Chain of DNA damage-inducible transcript 3 protein (P35639 whole entry): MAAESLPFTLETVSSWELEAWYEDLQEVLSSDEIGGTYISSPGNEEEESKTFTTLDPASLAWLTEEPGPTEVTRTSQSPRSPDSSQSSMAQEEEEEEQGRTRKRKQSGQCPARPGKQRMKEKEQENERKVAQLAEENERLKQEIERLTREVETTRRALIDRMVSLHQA
Chain of Cytochrome P450 2C9 (P11712 whole entry): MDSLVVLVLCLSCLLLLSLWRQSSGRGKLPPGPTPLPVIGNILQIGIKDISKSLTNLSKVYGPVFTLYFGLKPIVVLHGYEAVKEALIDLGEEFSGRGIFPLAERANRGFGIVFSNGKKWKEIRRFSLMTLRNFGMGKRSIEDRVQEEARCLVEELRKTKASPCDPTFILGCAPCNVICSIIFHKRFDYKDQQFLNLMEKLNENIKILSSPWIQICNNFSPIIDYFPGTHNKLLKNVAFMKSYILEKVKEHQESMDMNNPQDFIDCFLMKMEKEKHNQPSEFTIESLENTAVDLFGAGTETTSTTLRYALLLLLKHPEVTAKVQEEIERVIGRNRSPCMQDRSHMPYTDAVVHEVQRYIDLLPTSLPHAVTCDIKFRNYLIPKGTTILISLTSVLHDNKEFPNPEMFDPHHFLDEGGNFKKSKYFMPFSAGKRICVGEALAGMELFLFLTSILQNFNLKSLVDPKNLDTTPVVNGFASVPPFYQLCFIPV

Row | SMILES | EC50 [1] | IC50 [2] | IC50 [4] | EC50 [5] | IC50 [6] | IC50 [7] | IC50 [14] | IC50 [15] | IC50 [16] | IC50 [17] | further results
1 | CCc1ccc(C(=O)OCC(=O)c2c(N)n(CC(C)C)c(=O)n(C)c2=O)cc1 | > 20 µM (inactive) | 8.39 µM (active) | 15.6 µM (inactive) | 12.4 µM (active) | > 20 µM (inactive) | 13.8 µM (active) | – | – | – | – | IC50 [3]: 2.96 µM (not active)
2 | Cc1ccc(-c2nn(C)c(=O)c3ccccc23)cc1CNC(=O)Cn1nc(-c2ccccc2)c2ccccc2c1=O | – | – | – | – | – | – | – | – | – | – | AC50 [8]: 11.2 µM (inconclusive); AC50 [9]: 31.6 µM (inconclusive); Absolute IC50 (CHOP) [10]: 10 µM; Absolute IC50 (XBP1) [11]: 10 µM
3 | Cc1nc2ccc(NS(=O)(=O)c3ccc(C)c(C)c3)cc2s1 | 9.53 µM (active) | 10.9 µM (active) | 10.4 µM (inactive) | 3.65 µM (active) | > 20 µM (inactive) | > 20 µM (inactive) | – | – | – | – | IC50 [12]: > 47.1 µM (inactive); EC50 [13]: > 53 µM (inactive)
4 | CC(=O)Nc1ccc2nc3ccccc3nc2c1 | – | – | – | – | – | – | 44.9 µM (inactive) | > 66 µM (inactive) | 14.8 µM (not active) | 5.86 µM (active) | –
5 | Cc1ccccc1NC(=N)Nc1ccccc1C | – | – | – | – | – | – | 19.8 µM (active) | > 66 µM (inactive) | 8.31 µM (active) | 5.2 µM (active) | –
6 | O=C(C#Cc1ccccc1)c1ccc([N+](=O)[O-])cc1 | – | – | – | – | – | – | – | – | – | – | IC50 [18]: 9.68 µM (active); IC50 [19]: 16.3 µM; AC50 [20]: 1.38 µM (active); EC50 [21]: > 31.5 µM (inactive)
